Experimental data from ChEMBL document CHEMBL4425128, “Functional Characterization of Cholera Toxin Inhibitors Using Human Intestinal Organoids” (J Med Chem, 2016).
Calls of active or inactive are those of the source. The rule behind the calls is not given here.

Experiments:
[1] = Inhibition of HRP-tagged Vibrio cholerae cholera enterotoxin subunit B5 binding to GM1 coated plates using GM1os-beta-NAc-propargyl
[2] = Inhibition of cholera toxin in human intestinal organoids assessed as reduction in oganoids swelling using cholera toxin pre-incubated with compound for 4 hrs before organoid stimulation with cholera toxin by calcein AM staining based confocal microscopy; details: Vibrio cholerae, Intestine
[3] = target: Cystic fibrosis transmembrane conductance regulator (Homo sapiens) (UniProt P13569); experiment: Inhibition of CFTR in human intestinal organoids assessed as reduction in forskolin-induced oganoids swelling incubated for 4 hrs with cholera toxin followed by subsequent stimulation with 0.1 uM forskolin by calcein AM staining based confocal microscopy; details: Intestine
Chain of Cystic fibrosis transmembrane conductance regulator (Homo sapiens) (P13569 whole entry, looked up): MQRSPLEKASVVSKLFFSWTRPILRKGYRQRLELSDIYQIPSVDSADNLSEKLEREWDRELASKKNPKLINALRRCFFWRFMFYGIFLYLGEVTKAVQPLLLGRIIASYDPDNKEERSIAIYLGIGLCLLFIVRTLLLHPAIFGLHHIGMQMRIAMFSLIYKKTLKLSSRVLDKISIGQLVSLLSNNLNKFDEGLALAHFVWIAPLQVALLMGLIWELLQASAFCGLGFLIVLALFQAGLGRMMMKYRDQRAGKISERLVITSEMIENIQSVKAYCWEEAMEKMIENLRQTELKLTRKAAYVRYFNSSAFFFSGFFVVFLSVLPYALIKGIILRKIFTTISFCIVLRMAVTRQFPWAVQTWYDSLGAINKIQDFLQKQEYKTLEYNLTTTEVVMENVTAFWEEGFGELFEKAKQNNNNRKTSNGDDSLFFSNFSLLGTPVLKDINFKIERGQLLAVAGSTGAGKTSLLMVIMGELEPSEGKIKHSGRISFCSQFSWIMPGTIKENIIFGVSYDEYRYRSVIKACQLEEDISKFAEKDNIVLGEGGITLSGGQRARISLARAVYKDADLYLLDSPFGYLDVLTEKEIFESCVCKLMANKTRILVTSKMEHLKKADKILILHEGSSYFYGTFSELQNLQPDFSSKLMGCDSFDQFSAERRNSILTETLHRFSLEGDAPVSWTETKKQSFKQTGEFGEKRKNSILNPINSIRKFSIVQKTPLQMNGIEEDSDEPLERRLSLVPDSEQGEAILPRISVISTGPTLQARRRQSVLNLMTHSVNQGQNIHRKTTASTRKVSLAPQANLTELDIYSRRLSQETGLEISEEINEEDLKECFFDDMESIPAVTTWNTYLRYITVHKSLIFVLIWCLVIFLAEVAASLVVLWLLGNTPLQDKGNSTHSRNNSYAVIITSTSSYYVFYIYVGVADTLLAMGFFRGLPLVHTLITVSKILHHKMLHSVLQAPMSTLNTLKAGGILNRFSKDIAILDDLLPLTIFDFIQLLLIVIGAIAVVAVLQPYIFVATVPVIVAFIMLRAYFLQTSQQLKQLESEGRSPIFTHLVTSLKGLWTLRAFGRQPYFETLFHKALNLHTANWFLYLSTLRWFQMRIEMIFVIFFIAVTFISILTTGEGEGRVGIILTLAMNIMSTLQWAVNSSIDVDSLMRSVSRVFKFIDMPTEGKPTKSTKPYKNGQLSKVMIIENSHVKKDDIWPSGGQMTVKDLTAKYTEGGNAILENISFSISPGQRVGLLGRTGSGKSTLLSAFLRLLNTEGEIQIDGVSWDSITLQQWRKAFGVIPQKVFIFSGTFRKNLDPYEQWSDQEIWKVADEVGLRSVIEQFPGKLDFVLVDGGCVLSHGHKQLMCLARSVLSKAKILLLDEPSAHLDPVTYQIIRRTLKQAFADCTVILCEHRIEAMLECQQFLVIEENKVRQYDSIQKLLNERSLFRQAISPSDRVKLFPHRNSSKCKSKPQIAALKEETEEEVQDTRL

Q: With `CC(=O)N[C@H]1[C@H](O[C@@H]2[C@H](O[C@]3(C(=O)O)C[C@H](O)[C@@H](NC(C)=O)[C@H]([C@H](O)[C@H](O)CO)O3)[C@@H](O)[C@H](O[C@H]3[C@H](O)[C@@H](O)[C@H](N(Cc4cn(CCOCCOCCOCCO)nn4)C(C)=O)O[C@@H]3CO)O[C@@H]2CO)O[C@H](CO)[C@H](O)[C@@H]1O[C@@H]1O[C@H](CO)[C@H](O)[C@H](O)[C@H]1O` as the molecule, how does the IC50 [1] read?
A: 0.11 µM

Q: What about the IC50 [2] of the same molecule?
A: 0.424 µM

Q: What about the inhibition [3] of the same molecule?
A: inactive

Q: For `CC(=O)N[C@H]1[C@H](O[C@@H]2[C@H](O[C@]3(C(=O)O)C[C@H](O)[C@@H](NC(C)=O)[C@H]([C@H](O)[C@H](O)CO)O3)[C@@H](O)[C@H](O[C@H]3[C@H](O)[C@@H](O)[C@H](N(Cc4cn([C@@H]5[C@@H](OC(C)=O)O[C@@H](n6cc(CN(C(C)=O)[C@@H]7O[C@H](CO)[C@@H](O[C@@H]8O[C@H](CO)[C@H](O[C@@H]9O[C@H](CO)[C@H](O)[C@H](O[C@@H]%10O[C@H](CO)[C@H](O)[C@H](O)[C@H]%10O)[C@H]9NC(C)=O)[C@H](O[C@]9(C(=O)O)C[C@H](O)[C@@H](NC(C)=O)[C@H]([C@H](O)[C@H](O)CO)O9)[C@H]8O)[C@H](O)[C@H]7O)nn6)[C@H](OC(C)=O)[C@H]5OC(C)=O)nn4)C(C)=O)O[C@@H]3CO)O[C@@H]2CO)O[C@H](CO)[C@H](O)[C@@H]1O[C@@H]1O[C@H](CO)[C@H](O)[C@H](O)[C@H]1O`, which IC50 [1] is on record?
A: 0.008 µM

Q: What about the IC50 [2] of the same molecule?
A: 0.018 µM

Q: What about the inhibition [3] of the same molecule?
A: inactive

Q: With `O=C[C@H](O)[C@@H](O)[C@@H](O)[C@H](O)CO` [GALACTOSE] as the molecule, how does the IC50 [2] read?
A: 9100 µM

Q: And the inhibition [3]?
A: inactive
